Measured values: patent US20250101108A1, “METHODS TO ENHANCE THERAPEUTIC EFFICACY IN MELANOMA VIA MODULATION OF CELL SURFACE PD-L1/L2” (THE REGENTS OF THE UNIVERSITY OF CALIFORNIA, priority 2021, published 2025)
Where two headings read alike, the source gives them in different places.

How the values were obtained:
ITCH = ITCH (Homo sapiens, UniProt Q96J02); conditions: cited from earlier work
ITCH-FLAG = target: T1, ITCH-FLAG (Homo sapiens, UniProt Q96J02); test: Ubiquitination assay (IP and WB detection of UB) in M238 R1 cells expressing ITCH-FLAG; assay type: cell-based; conditions: 0, 40, 80 μM for 6 days, then MG-132 20 μM 4 hours
T1 construct: expressed in transfected cells
Method: (§1) (6A) Structure and chemical name of AK087. (6B) M238R1 cells with ITCH-FLAG over-expression were treated with 0, 40, or 80 μM of AK087 for 6 days and then treated with MG-132 (20 μM) for 4 hours followed by anti-PD-L1 or anti-FLAG IP and Western blot (WB) detection of UB. (6C) 293T cells co-transfected with PD-L1-FLAG and ITCH-HA were treated with 0, 40, or 80 μM of AK087 for 6 days and then treated with MG-132 (20 μM) for 4 hours followed by anti-HA or anti-FLAG IP and WB detection of UB. (6D) M238R1 cell-surface levels of PD-L1 (left) and PD-L2 (right) as measured by cell-surface staining and FACS analysis after 0, 20, 40, 80 μM AK087 treatment for 6 days. Mean±SEMs (n=3). […]

endogenous PD-L1 = test: Ubiquitination assay (anti-PD-L1 IP and WB detection of UB) in M238 R1 cells; assay type: cell-based, human; conditions: 0, 40, 80 μM for 6 days, then MG-132 20 μM 4 hours
Method: as §1

[1] = test system: tumor cell-surface PD-L1/L2; test: Cell-surface PD-L1 and PD-L2 detection by cell-surface staining and FACS analysis in cultured cell lines; assay type: cell-based, human
Method: as §1
(§2) FIGS. 9A-9N show physical and functional interactions between ITCH and PD-L1/L2. (9A) Cell-surface levels of PD-L2 in M238R1 (left) and MDA-MB-231 (right) cells stably expressing control shRNA (shCtr) or ITCH-targeting shRNAs (shiICH-1, shiICH-2), as measured by cell-surface staining and FACS analysis (PD-L2 is not detectable in H358 cells). MFI, mean fluorescence intensity. […] (9B) Cell-surface levels of PD-L2 in M238 R1 cells stably expressing empty vector (Vec) or over-expression (OE) ITCH, as measured by cell-surface staining and FACS analysis. […] (9C) Cell-surface levels of PD-L1 in M238R1, H358, and MDA-MB-231 stably expressing control shRNA (shCtr) or ITCH-targeting shRNAs (shiICH-1, shiICH-2) and M238R1 stably expressing empty vector (Vec) or OE ITCH, as measured by immunofluorescence staining. […] (9D) PD-L1 internalization in M238 R1 cells stably expressing empty vector (Vec) or OE ITCH, as measured by FACS analysis. […]

total PD-L1 = test: Western blots of total PD-L1 protein levels in cultured cell lines; assay type: cell-based, human; conditions: for total PD-L1 protein level: 20, 40, 80 μM for 6 days
Method: as §1, §2

[2] = test system: YUMM1.7ER melanoma tumors; test: Subcutaneous syngeneic YUMM1.7ER tumors on trametinib, acquired MAPKi-resistance; assay type: in vivo
YUMM1.7ER = test: Response of YUMM1.7ER melanoma to immune checkpoint blockade; assay type: in vivo, murine; conditions: AK087 10 mg/kg/day subcutaneously with anti-PD-1, anti-CTLA-4
Method: (§3) Data are derived from two murine models of melanoma, YUMM1.ER, Braf^V600MUT melanoma, and NILER1-4, […] melanoma. (15A) YUMM1.7ER. n=9-10 per group. Means±SEM. Anti-PD-1 200 μg/mouse, anti-CTLA-4 200 μg/mouse three times a week for the first two weeks, then change to twice/week treatment. AK087 10 mg/kg/day (Subcutaneously, daily) administration. *p<0.05, student's t test. (15B) NILER1-4. n=8-10 per group. Means±SEM. Anti-PD-1 200 μg/mouse, anti-CTLA-4 200 g/mouse, aLAG-3 200 μg/mouse three times a week for the first two weeks, then change to twice/week treatment. AK087 15 mg/kg/day (Subcutaneously, daily) administration. *p<0.05, student's t test.
as §3, with “melanoma. […]” for “melanoma. (15A) YUMM1.7ER. n=9-10 per group.”, “then changed” for “then change”, “test. […]” for “test. (15B) NILER1-4. n=8-10 per group.”, “200 μg/mouse,” for “200 g/mouse,”

NILER1-4 = test: Response of NILER1-4 melanoma to immune checkpoint blockade; assay type: in vivo, murine; conditions: AK087 15 mg/kg/day subcutaneously with anti-PD-1, anti-CTLA-4, aLAG-3
Method: as §3
as §3, with “melanoma. […]” for “melanoma. (15A) YUMM1.7ER. n=9-10 per group.”, “then changed” for “then change”, “test. […]” for “test. (15B) NILER1-4. n=8-10 per group.”, “200 μg/mouse,” for “200 g/mouse,”

UBCH7 and ITCH [3] = target: T2, UBCH7 and ITCH (Homo sapiens, UniProt Q96J02); test: UBCH7-ITCH interaction, proximity ligation assay (PLA) in cancer cell lines; assay type: cell-based; conditions: M229R5, H358, M238R1 and M238, 100 μM for 2 days
Method: Right panel: M229R5, H358, M238R1 and M238 cells were treated with DMSO or AK087 (100 μM) for 2 days followed by proximity ligation assay (PLA) using anti-UBCH7 and anti-ITCH antibodies. Signal dots per cell was quantified by the Duolink ImageTool. For bar graph: n=2-3. Means±SEM. *p<0.05, **p<0.01, student's t test.
For bar graph: n=2-3. Means #SEM. *p<0.05, **p<0.01, student's t test.

UBCH7 and ITCH [4] = target: T2, UBCH7 and ITCH; test: UBCH7-ITCH interaction, anti-FLAG immunoprecipitation and WB in HEK293T cells; assay type: cell-based; design: expressed in transfected cells; host or cells: HEK293T; conditions: HA-UBCH7 and ITCH-FLAG, 100 μM for 24 or 36 hours
[5] = AK087 10 mg/kg/day for 17 days, co-treatment with trametinib
[6] = M238 R1 Vec or OE ITCH, 16 hours

Chain of ITCH (Q96J02 whole entry, species assumed): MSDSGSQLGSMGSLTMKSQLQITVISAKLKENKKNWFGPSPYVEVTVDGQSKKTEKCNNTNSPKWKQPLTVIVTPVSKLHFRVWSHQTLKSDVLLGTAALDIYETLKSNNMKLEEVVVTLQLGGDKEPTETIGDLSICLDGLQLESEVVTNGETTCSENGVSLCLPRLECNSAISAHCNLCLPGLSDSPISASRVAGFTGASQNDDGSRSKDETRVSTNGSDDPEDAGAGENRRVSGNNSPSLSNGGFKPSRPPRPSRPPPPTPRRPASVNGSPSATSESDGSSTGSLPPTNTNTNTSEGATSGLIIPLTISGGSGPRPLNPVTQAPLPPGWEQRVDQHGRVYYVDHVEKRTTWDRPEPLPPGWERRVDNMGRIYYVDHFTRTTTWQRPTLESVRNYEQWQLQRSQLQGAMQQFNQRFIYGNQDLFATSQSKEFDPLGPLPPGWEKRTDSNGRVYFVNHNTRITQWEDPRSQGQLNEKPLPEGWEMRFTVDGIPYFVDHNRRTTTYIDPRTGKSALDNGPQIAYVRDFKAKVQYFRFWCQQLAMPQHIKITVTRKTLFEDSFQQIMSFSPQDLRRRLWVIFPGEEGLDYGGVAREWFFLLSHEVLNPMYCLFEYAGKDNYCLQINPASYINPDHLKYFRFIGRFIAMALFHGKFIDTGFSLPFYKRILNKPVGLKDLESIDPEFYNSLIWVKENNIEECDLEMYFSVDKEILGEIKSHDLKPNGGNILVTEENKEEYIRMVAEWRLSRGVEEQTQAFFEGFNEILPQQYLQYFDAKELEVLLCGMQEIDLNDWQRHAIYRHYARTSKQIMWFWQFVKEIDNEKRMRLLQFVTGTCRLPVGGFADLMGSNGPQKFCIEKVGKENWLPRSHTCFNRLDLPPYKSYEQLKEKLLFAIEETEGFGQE
T2 sequence (Q96J02 whole entry): as the sequence (Q96J02 whole entry, species assumed) above
T2 sequence (P68036 whole entry partner): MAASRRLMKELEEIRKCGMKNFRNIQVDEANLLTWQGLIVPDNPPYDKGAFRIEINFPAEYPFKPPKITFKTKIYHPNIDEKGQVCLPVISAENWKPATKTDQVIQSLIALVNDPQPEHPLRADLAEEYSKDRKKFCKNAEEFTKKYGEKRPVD
T1 sequence (Q96J02 whole entry): as the sequence (Q96J02 whole entry, species assumed) above

Compound: Cc1ccc(N2C(=O)C(Cl)=C(N3CCCCC3)C2=O)cc1 [RL 2, 3-chloro-1-(4-methylphenyl)-4-piperidin-1-yl-1H-pyrrole-2,5-dione]
- Activity (%) (ITCH; Screening concentration 10 uM): 141%

Compound: Cc1ccc(NS(=O)(=O)c2ccccc2)cc1C [RL 3, N-(3,4-dimethylphenyl)benzenesulfonamide]
- Activity (%) (ITCH; Screening concentration 10 uM): 140%

Compound: Cc1ccc(S(=O)(=O)c2cc3ccc(C)n3cn2)cc1 [RL 4, 4-methylphenyl 7-methylpyrrolo[1,2-c]pyrimidin-3-yl sulfone]
- Activity (%) (ITCH; Screening concentration 10 uM): 145%

Compound: COc1cc2oc(=O)cc(C)c2c(OC)c1OC [RL 5, 5,6,7-trimethoxy-4-methyl-2H-chromen-2-one]
- poly/auto-ubiquitination of ITCH-FLAG (ITCH-FLAG): dose-dependently enhanced
- poly-ubiquitination of endogenous PD-L1 (endogenous PD-L1): enhancing the poly-ubiquitination
- tumor cell-surface PD-L1 ([1]; H358, 0, 20, 40, 80 μM for 6 days): dose-dependently reduced
- tumor cell-surface PD-L1/L2 ([1]; M238 R1, 0, 20, 40, 80 μM for 6 days): dose-dependently reduced
- total PD-L1 protein level (total PD-L1; H358): dose-dependently reduced
- total PD-L1 protein level (total PD-L1; M238 R1): dose-dependently reduced
- body weight loss / toxicities [2, 5]: no appreciable body weight loss or superficial evidence of toxicities
- complete responses [2, 5]: 5 of 9
- acquired MAPKi-resistance ([2]; AK087 10 mg/kg/day subcutaneously for 17 days, co-treatment with trametinib 0.45 mg/kg/d): suppressed acquired MAPKi-resistance
- response to immune checkpoint blockade (YUMM1.7ER): improves responses
- response to immune checkpoint blockade (NILER1-4): improves responses
- interaction between UBCH7 and ITCH (UBCH7 and ITCH [3]): enhances the interaction
- Activity (%) (ITCH; Screening concentration 10 uM): 140%
- enhancement of auto-ubiquitination of ITCH (ITCH; reconstituted recombinant proteins, small molecule screen (ref. 25)): 140%
- interaction between UBCH7 and ITCH (UBCH7 and ITCH [4]): enhances the interaction

Compound: Cc1[nH]nc2c1C(c1ccccc1OC(C)C)C(C#N)=C(N)O2 (stereo not shown) [RL 6, 6-amino-3-methyl-4-{2-[(1-methylethyl)oxy]phenyl}-2,4-dihydropyrano[2,3-c]pyrazole-5-carbonitrile]
- Activity (%) (ITCH; Screening concentration 10 uM): 194%

Compound: CCN(CC)CCCC(C)Nc1ccnc2cc(Cl)ccc12 (stereo not shown) [chloroquine, reference compound]
- down-regulation of cell-surface PD-L1 levels elicited by ITCH over-expression [1, 6]: rescued down-regulation
- down-regulation of total PD-L1 levels elicited by ITCH over-expression (total PD-L1; [6]): rescued down-regulation

Compound: CHLORO- PHYLLIDE Cu COMPLEX Na SALT [RL 1]
- Activity (%) (ITCH; Screening concentration 20 uM): 147%
